Test results taken from ChEMBL document CHEMBL4020740, “Antitubulin effects of aminobenzothiophene-substituted triethylated chromones” (Bioorg Med Chem Lett, 2017).
Activity calls are given as the source filed them. No cut-off for these calls is given here.

Experiments:
Homo sapiens = species on record: Homo sapiens; test: Inhibition of tubulin polymerization in interphase stage of human MDA-MB-231 cells at 0.2 uM after 24 hrs by DAPI staining based confocal microscopic analysis
[1] = Antiproliferative activity against human KBVIN cells by sulforhodamine B assay; format: functional, cell-based
MCF7 = test: Antiproliferative activity against human MCF7 cells by sulforhodamine B assay
KB = test: Antiproliferative activity against human KB cells by sulforhodamine B assay
MDA-MB-231 = test: Antiproliferative activity against human MDA-MB-231 cells by sulforhodamine B assay
A549 = test: Antiproliferative activity against human A549 cells by sulforhodamine B assay
[2] = Lipophilicity, log P of the compound; format: physicochemical; details: octanol/water

Compound	inhibition (Homo sapiens)	IC50 (MCF7) [µM]	IC50 (KB) [µM]	IC50 (MDA-MB-231) [µM]	IC50 (A549) [µM]	logP [2]	IC50 [1] [µM]
COc1ccc(/C=C\c2cc(OC)c(OC)c(OC)c2)cc1O	Active	–	–	–	–	–	–
CC(=O)O[C@H]1C(=O)[C@@]2(C)[C@H]([C@H](OC(=O)c3ccccc3)[C@]3(O)C[C@H](OC(=O)[C@H](O)[C@@H](NC(=O)c4ccccc4)c4ccccc4)C(C)=C1C3(C)C)[C@]1(OC(C)=O)CO[C@@H]1C[C@@H]2O [PACLITAXEL]	–	–	–	–	–	–	2.04
CCC1=C(OC)C(CC)(CC)C(O)=C(C(=O)/C=C/c2csc3ccc(NC(=O)OC(C)(C)C)cc23)C1=O	–	7.01	5.88	7.48	5.1	–	5.45

Further lines, with some results ahead:

inhibition (Homo sapiens)	IC50 (MCF7) [µM]	IC50 (KB) [µM]	IC50 (MDA-MB-231) [µM]	IC50 (A549) [µM]	logP [2]	Compound	IC50 [1] [µM]
–	> 40	> 40	> 40	> 40	–	CCC1=C(O)c2c(oc(-c3csc4cc(NC(=O)OC(C)(C)C)ccc34)cc2=O)C(CC)(CC)C1=O	> 40
–	6.01	5.13	6.52	5.62	–	CCC1=C(OC)C(CC)(CC)c2oc(-c3csc4cc(NC(=O)OC(C)(C)C)ccc34)cc(=O)c2C1=O	5.02
–	–	–	–	–	2.11	CCC1=C(O)c2c(oc(-c3csc4cc(N)ccc34)cc2=O)C(CC)(CC)C1=O	–
